Experimental data taken from US12083131B2 (priority 2014, dated 2024).

How the values were obtained:
[1] = test system: TBI; experiment: Treatment of subjects with TBI at the starting dose; settings: starting dose (29 μg/kg/hr), 11 subjects with TBI
[2] = Other clinical studies and experience to date with intravenous allopregnanolone; settings: all AEs reported to date
[3] = test system: severe postpartum depression (PPD); experiment: Clinical study of allopregnanolone injection in adult female patients with severe postpartum depression
[4] = test system: essential tremor; experiment: Clinical trial of allopregnanolone injection in essential tremor (Stage One placebo-controlled crossover, low-dose; Stage Two open-label, high-dose)
[5] = test system: SRSE; experiment: Continuous infusion allopregnanolone under emergency-use INDs for SRSE
[6] = in vivo; cited from earlier work

CC(=O)[C@H]1CC[C@H]2[C@@H]3CC[C@H]4C[C@H](O)CC[C@]4(C)[C@H]3CC[C@]12C [allopregnanolone, 3 alpha-hydroxy-5 alpha-pregnan-20-one]
SAEs at the starting dose [1]: no SAEs reported | AEs reported to date [2]: mild and non-serious | Response (relief from symptoms) after treatment ([3]; after treatment): sustained | Clinical Global Impression-Improvement (CGI-I) scale ([3]; all four patients): consistent improvement | Remission as measured by HAM-D during the treatment period ([3]; all four patients): rapidly achieved remission | Tolerability ([3]; all patients, on therapy or during the 30-day follow-up period): well-tolerated | Time to improvement of symptoms after treatment ([3]; four patients (e.g., within 24 hours, within 12 hours after treatment)): one | Mean HAM-D score at baseline ([3]; four patients, baseline, >24.0 is severe): 26.5 | Mean HAM-D score by the end of the treatment period ([3]; four patients, end of treatment period, below 7.0 is symptom-free): 1.8 | Time to improvement in depression after administration ([3]; four women with severe PPD): ≤ 24 h | Improvement in depression, number of women ([3]; women with severe PPD, intravenous administration): four of four | Tolerability of the maintenance dose ([4]; 86 mcg/kg/hour, Stage One): good tolerability | Adverse events reported ([4]; Stage One, arms not distinguished, one case each of phlebitis, somnolence, abnormal dreams, back pain, nasal congestion, headache, fatigue, nausea, two cases of dizziness): 10 | Sedation scores versus placebo ([4]; conclusion of Stage One): no clear difference | Measures of activity in essential tremor (accelerometer and TETRAS scores) versus placebo ([4]; conclusion of Stage One, maintenance dose 86 mcg/kg/hour): no clear difference | Drug-related SAEs at the target/maximum level of exposure ([5]; 150 nM exposure, 6 subjects with SRSE, continuous infusion): no drug-related SAEs reported | Drug-related serious adverse events at maintenance dose ([5]; 150 mcg/kg/hour, six subjects with SRSE): without any drug-related serious adverse events

Cc1ncc2n1-c1ccc(Cl)cc1C(c1ccccc1F)=NC2 [midazolam]
Exposure of breast-feeding infant [6]: less than 0.1 % of the maternal dose

CC(C)c1cccc(C(C)C)c1O [propofol]
Exposure of breast-feeding infant [6]: less than 0.1 % of the maternal dose
